Data published in publication PMC8306828 (International Journal of Molecular Sciences, 2021).
Read-outs that look alike come from different tables or passages of the source.

Key:
A2780cis cells [1] = assay: MTT cellular viability assay, A2780cis; assay type: cell-based, human; settings: for RF (IC50 A2780cis/IC50 A2780): Resistance factor defined as IC50(resistant)/IC50(sensitive); for IC50: A2780cis, MTT, 72 h
Method: (§1) Cell lines A2780 (human ovarian carcinoma, ECACC cat. No. 93112519), A2780cis (subline resistant to cisplatin, ECACC cat. […] All cell lines were maintained in a humidified incubator, at 37 °C and 5% CO2. The cell lines A2780 and A2780cis were grown as monolayers, and cultures were detached with trypsin and renewed every 3–4 days. Toledo and Toledo-cis were grown in suspension; the cultures were renewed every 3–4 days. The Toledo cell line was kindly provided by Prof. […] The cancer cells were seeded in 24-well plates, with 1 mL of cell suspension per well, in the following densities: A2780—10^4 cells/mL; […] Lymphocytes were seeded in 48-well plates, 0.5 mL of cell suspension per well, at −2 × 10^5 cells/mL. The cultures were left overnight to adapt. The next day, the tested compounds were added, pre-dissolved in DMF, and then in a complete culture medium, at concentrations two-fold higher than the final ones. The resulting solutions were added to cell cultures to obtain the demanded concentration. Stock solutions of the compounds were freshly made before every experiment. The final concentration of the solvents in culture medium was 0.2% v/v. […] Then the culture medium was removed, and the purple formazan crystals were dissolved in DMSO. The absorbance was measured at 540 nm on a Spectrostar Nano spectrophotometer with a microplate reader (BMG Labtech, Ortenberg, Germany). The experiments were performed at least in triplicate. The results were transformed to relative values, as the percentage of the solvent control (assumed as 100%) to subtract any toxic effect of DMF.

Toledo-cis cells [2] = assay: MTT cellular viability assay, Toledo-cis; assay type: cell-based, human; settings: for RF (IC50 Toledo-cis/IC50 Toledo): Resistance factor defined as IC50(resistant)/IC50(sensitive); for IC50: Toledo-cis, MTT, 72 h
Method: as §1

human lymphocytes [3] = assay: MTT cellular viability assay, normal lymphocytes; assay type: cell-based; settings: for times less toxic for normal lymphocytes in comparison to cisplatin: relative to cisplatin; for IC50: Lymphocytes, MTT, 72 h
Method: The buffy coat fraction of peripheral blood from healthy donors was purchased from the Regional Blood Bank in Lodz, Poland. Mononuclear blood cells were isolated using Lympho-Sep tubes (Biological Industries, Israel). Lymphocytes were cultured in RPMI-1640 medium (Biological Industries, Israel) supplemented with 10% heat-inactivated fetal bovine serum, phytohemaglutinin M solution (PHA-M, Biological Industries), 5 mM Hepes, and 50 µg/mL gentamycin. The cancer cells were seeded in 24-well plates, with 1 mL of cell suspension per well, in the following densities: A2780—10^4 cells/mL; […] Lymphocytes were seeded in 48-well plates, 0.5 mL of cell suspension per well, at −2 × 10^5 cells/mL. The cultures were left overnight to adapt. The next day, the tested compounds were added, pre-dissolved in DMF, and then in a complete culture medium, at concentrations two-fold higher than the final ones. The resulting solutions were added to cell cultures to obtain the demanded concentration. Stock solutions of the compounds were freshly made before every experiment. The final concentration of the solvents in culture medium was 0.2% v/v. […] Then the culture medium was removed, and the purple formazan crystals were dissolved in DMSO. The absorbance was measured at 540 nm on a Spectrostar Nano spectrophotometer with a microplate reader (BMG Labtech, Ortenberg, Germany). The experiments were performed at least in triplicate. The results were transformed to relative values, as the percentage of the solvent control (assumed as 100%) to subtract any toxic effect of DMF.

A2780 cells [4] = system: A2780 cells; set-up: method as in doi:10.1016/j.ica.2016.11.021; settings: cited from earlier work
A2780cis cells [5] = system: A2780cis cells; set-up: method as in doi:10.1016/j.ica.2016.11.021; settings: MTT, 72 h, reposted from previous paper; cited from earlier work
Toledo cells [6] = system: Toledo cells; set-up: method as in doi:10.1016/j.ica.2016.11.021; settings: cited from earlier work
Toledo-cis cells [7] = system: Toledo-cis cells; set-up: method as in doi:10.1016/j.ica.2016.11.021; settings: MTT, 72 h, reposted from previous paper; cited from earlier work
human lymphocytes [8] = system: human lymphocytes; set-up: method as in doi:10.1016/j.ica.2016.11.021; settings: MTT, 72 h, reposted from previous paper; cited from earlier work
A2780 and A2780cis cells [9] = assay: Annexin V apoptosis assay (flow cytometry); assay type: cell-based, human; settings: 2 h and 4 h incubation, compared to untreated cells
Method: The apoptotic cells were identified by flow cytometry using the Annexin-V/FITC (BDBiosciences, San Diego, CA, USA) assay according to the manufacturer’s instructions. […] PI only stains the nuclei of damaged cells with permeable plasma membranes. Briefly, the cells were incubated with tested compounds for 2 and 4 h. After incubation, the cells were washed twice with cold PBS and then resuspended in 100 μL of binding buffer, containing 2 μL of FITC conjugated annexin-V and 10 μg mL^−1 of PI (Becton-Dickinson, San Jose, CA, USA). Then, the preparations were incubated at room temperature, protected from light, for 15 min. Fluorescence was measured immediately after staining by flow cytometry using FL1 (green, annexin-V) and FL3 (red, PI) standard fluorescent filters.

A2780 and A2780cis cells [10] = assay: Mitochondrial potential loss measurement (MitoTracker Red, flow cytometry); assay type: cell-based, human; settings: 2 h and 4 h incubation
Method: The loss of mitochondrial transmembrane potential (ΔΨm) occurs early during apoptosis and is often considered as a marker of apoptosis activated by the mitochondrial pathway. MitoTracker Red (Invitrogen, Waltham, MA, USA) dye was used as a probe for ΔΨm, which accumulates in the active mitochondria of living cells: 50 nM, 20 min incubation, at RT. The reduction of Δ Ψm was detected by flow cytometry as a decrease in red fluorescence of the dye in treated cells as compared to untreated cells.

A2780 cells [11] = assay: MTT cellular viability assay, A2780; assay type: cell-based, human; settings: 72 h
Method: (§2) Cell lines A2780 (human ovarian carcinoma, ECACC cat. No. 93112519), A2780cis (subline resistant to cisplatin, ECACC cat. No. 93112517), Toledo (human diffuse large cell lymphoma, ATCC CRL-2631TM), and Toledo-cis (cisplatin-resistant subline obtained from Toledo in our laboratory) were cultured in RPMI-1640 medium (Biological Industries, Kibbutz Beit-Haemek, Israel) supplemented with 10% heat-inactivated fetal bovine serum, 5 mM Hepes, and 50 µg/mL gentamycin. All cell lines were maintained in a humidified incubator, at 37 °C and 5% CO2. The cell lines A2780 and A2780cis were grown as monolayers, and cultures were detached with trypsin and renewed every 3–4 days. Toledo and Toledo-cis were grown in suspension; the cultures were renewed every 3–4 days. The Toledo cell line was kindly provided by Prof. Piotr Smolewski from the Department of Experimental Hematology, Medical University of Lodz, ul Ciołkowskiego 2, 93–510 Łódź, Poland, on the conditions of collaboration. […]
(§3) The cancer cells were seeded in 24-well plates, with 1 mL of cell suspension per well, in the following densities: A2780—10^4 cells/mL; A2780cis—1.5 × 10^4 cells/mL; and Toledo and Toledo-cis—5 × 10^4 cells/mL. […] The absorbance was measured at 540 nm on a Spectrostar Nano spectrophotometer with a microplate reader (BMG Labtech, Ortenberg, Germany). […]

Toledo cells [12] = assay: MTT cellular viability assay, Toledo; assay type: cell-based, human; settings: 72 h
Method: as §2, §3

[13] = system: panel of cancer cells and human lymphocytes; assay: MTT cellular viability assay, all tested cell lines; assay type: cell-based; settings: range over all tested cell lines, 72 h, read-out: IC50 values towards all tested cell lines
Method: as §2, §3

human topoisomerase I = biological target: T1, human topoisomerase I (Homo sapiens, UniProt P11387); assay: Topoisomerase I drug screening (plasmid based), gel electrophoresis; assay type: biochemical; settings: scDNA + topo1; tested compounds 10-20 µM, camptothecin 100 µM
T1 construct: purchased TopoGen, Buena Vista, CO, USA
T1 sequence (P11387 1-765): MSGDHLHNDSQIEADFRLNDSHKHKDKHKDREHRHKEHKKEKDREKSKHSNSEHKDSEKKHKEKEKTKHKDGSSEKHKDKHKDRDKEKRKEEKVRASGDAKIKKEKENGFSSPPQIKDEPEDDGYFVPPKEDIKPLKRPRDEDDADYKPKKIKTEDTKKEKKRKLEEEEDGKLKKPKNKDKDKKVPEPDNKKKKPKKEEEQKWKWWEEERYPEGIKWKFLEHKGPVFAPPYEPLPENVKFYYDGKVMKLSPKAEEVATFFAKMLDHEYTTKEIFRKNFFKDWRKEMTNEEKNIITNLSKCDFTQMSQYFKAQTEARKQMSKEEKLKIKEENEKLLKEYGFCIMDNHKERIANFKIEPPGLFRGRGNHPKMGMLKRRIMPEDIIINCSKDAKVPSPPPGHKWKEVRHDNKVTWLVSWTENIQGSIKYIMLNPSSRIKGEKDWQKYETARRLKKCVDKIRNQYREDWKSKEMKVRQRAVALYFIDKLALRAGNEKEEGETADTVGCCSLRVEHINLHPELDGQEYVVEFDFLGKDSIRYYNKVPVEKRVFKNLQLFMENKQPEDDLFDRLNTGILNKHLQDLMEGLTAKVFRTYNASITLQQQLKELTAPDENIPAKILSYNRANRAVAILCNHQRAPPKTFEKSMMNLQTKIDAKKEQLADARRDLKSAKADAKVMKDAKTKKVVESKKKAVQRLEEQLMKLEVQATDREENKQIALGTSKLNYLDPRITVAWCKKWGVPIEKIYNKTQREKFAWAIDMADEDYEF
Method: The test procedure was carried out according to the manufacturer′s instructions (Topoisomerase I Drug Screening Kit(plasmid based) TopoGen/Topoisomerase II Drug Screening Kit (plasmid based) (TopoGen, Buena Vista, CO, USA). A reaction mixture with appropriate concentrations of water and buffer and 1–0.5 mL of DNA (plasmid) was prepared. Then, the tested compounds dissolved in DMSO were added. A solvent control test was also performed. Finally, an enzyme in the indicated amount was added to the mixture. The whole was incubated at 37 °C for 30 min. Then, the reaction was stopped by adding 2 μL of detergent-SDS (sodium dodecyl sulfate). Proteinase K solution (50 μg/mL) was then added and incubated at 37 °C for 15 min. After that time, a loading buffer (bromophenol blue and glycerol) was added to the samples and then applied to a 1% agarose gel. Electrophoresis was carried out in TAE (Tris Acetate-EDTA) buffer, which was obtained by mixing 40 mM Tris Acetate, 1 mM EDTA, and diluting with water. It was carried out for 4–5 h at 2 V/cm. For the Topo I assay, two types of gel were prepared: non-EB (Figure 8A) and EB gel (Figure 8B). Non-EB gels were stained with EB (0.5 ug/mL) for 15–30 min and then destained in water or buffer for 15 min prior to photodocumentation. […]

[14] = A2780, MTT, 72 h, reposted from previous paper
[15] = MTT, 72 h, reposted from previous paper

Structure (SMILES)	RF (IC50 A2780cis/IC50 A2780) (A2780cis cells [1])	RF (IC50 Toledo-cis/IC50 Toledo) (Toledo-cis cells [2])	times less toxic for normal lymphocytes in comparison to cisplatin (human lymphocytes [3])	IC50 (A2780 cells [4]; [14])	IC50 (A2780cis cells [5])	IC50 (Toledo cells [6]; [15])	IC50 (Toledo-cis cells [7])	IC50 (human lymphocytes [8])	percentage of Ann-V positive cells (A2780 and A2780cis cells [9])	loss of mitochondrial membrane potential (A2780 and A2780cis cells [10])	further results
COC1(c2ccccc2)Oc2ccccc2C(=O)C1=N.COC1(c2ccccc2)Oc2ccccc2C(=O)C1=N.[Cl][Ru][Cl] (stereo not drawn) [134 (2), cis-dichlorobis(3-imino-2-methoxyflavanone)ruthenium(II)]	1.8	5.8	3 times	2500 ± 200 nM	4.6 ± 0.2 µM	500 ± 100 nM	2900 ± 200 nM	3400 ± 300 nM			
CCOC1(c2ccccc2)Oc2ccccc2C(=O)C1=N.CCOC1(c2ccccc2)Oc2ccccc2C(=O)C1=N.[Cl][Ru][Cl] (stereo not drawn) [138 (3), cis-dichlorobis(3-imino-2-ethoxyflavanone)ruthenium(II)]	0.8	4.6	7 times	1800 ± 100 nM	1.5 ± 0.4 µM	600 ± 40 nM	2800 ± 100 nM	1600 ± 100 nM			
N.N.[Cl][Pt][Cl] [Cisplatin (1), cis-diamminedichloroplatinum (II), reference compound]	84	17		200 ± 100 nM	16.8 ± 1.5 µM	500 ± 70 nM	8300 ± 600 nM	200 ± 100 nM	did not cause similar changes	much lower influence	RF (IC50 Toledo-cis/IC50 Toledo) (Toledo-cis cells [2]; listed as cisplatin): about 17; IC50 (A2780 cells [4]; A2780, text value): < 1000 nM; IC50 (Toledo cells [6]): < 1000 nM
Nc1c(-c2ccccc2)oc2ccccc2c1=O [Ligand, 3-aminoflavone, reference compound]											IC50 (A2780 cells [11]; Homo sapiens): > 100 µM; IC50 (A2780cis cells [1]; Homo sapiens): > 100 µM; IC50 (Toledo cells [12]; Homo sapiens): > 100 µM; IC50 (Toledo-cis cells [2]; Homo sapiens): > 100 µM; IC50 (human lymphocytes [3]; Homo sapiens, Lymphocyte): > 100 µM
Nc1c(-c2ccccc2)oc2ccccc2c1=O.Nc1c(-c2ccccc2)oc2ccccc2c1=O.[Cl][Pt][Cl] [TCAP(4), trans-dichlorobis(3-aminoflavone)platinum(II)]	2.3	1.4	60 times						did not cause similar changes	much lower influence	IC50 (A2780 cells [11]): 6.5 ± 0.3 µM; IC50 (A2780cis cells [1]): 15.1 ± 0.6 µM; IC50 (Toledo cells [12]): 8.8 ± 0.8 µM; IC50 (Toledo-cis cells [2]): 12.6 ± 1.2 µM; IC50 (human lymphocytes [3]): 11.9 ± 0.7 µM; IC50 [13]: 6.5 to 15.1 µM
CC[C@@]1(O)C(=O)OCc2c1cc1n(c2=O)Cc2cc3ccccc3nc2-1 [camptothecin]											inhibition of topoisomerase I / DNA band pattern (human topoisomerase I): presence of open circular DNA
